For this assay, the target named is Cdk9/cyclinT1 (Homo sapiens (Human), UniProt P50750). The assay is described as follows: Cdk9/CyclinT1 IMAP Protocol (fluorescence polarization kinase assay). Format: biochemical. The following applies: Table 2; generated using one of the two Cdk9/cyclinT1 assays (IMAP or Alpha Screen), not specified which; unit inferred. The procedure, abridged:
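Reaction used 4 nM Cdk9/cyclinT1, 100 nM 5TAMRA-cdk7tide peptide and 6 uM ATP in 100 mM Tris pH 7.2 with MgCl2, 0.01% Tween-20, 1 mM DTT and 2.5% DMSO, running 4.5 h. Phosphopeptide was captured by IMAP binding reagent for >1 h, then read by fluorescence polarization (ex 531/em 595 nm).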
In general terms: Fluorescence polarisation rises when a labelled molecule tumbles more slowly, as on binding a larger partner.
Sequence of Cdk9/cyclinT1 (P50750 whole entry): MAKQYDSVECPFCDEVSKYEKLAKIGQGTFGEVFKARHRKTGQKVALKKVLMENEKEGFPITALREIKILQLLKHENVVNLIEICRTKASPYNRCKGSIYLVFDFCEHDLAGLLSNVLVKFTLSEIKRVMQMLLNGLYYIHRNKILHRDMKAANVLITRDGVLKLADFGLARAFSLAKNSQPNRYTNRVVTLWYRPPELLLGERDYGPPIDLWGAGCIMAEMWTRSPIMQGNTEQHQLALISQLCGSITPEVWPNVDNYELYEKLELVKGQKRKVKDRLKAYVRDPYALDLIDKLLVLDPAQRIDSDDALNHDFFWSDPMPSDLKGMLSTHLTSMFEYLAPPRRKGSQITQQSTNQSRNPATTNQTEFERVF
Sequence of Cdk9/cyclinT1 (O60563 whole entry partner): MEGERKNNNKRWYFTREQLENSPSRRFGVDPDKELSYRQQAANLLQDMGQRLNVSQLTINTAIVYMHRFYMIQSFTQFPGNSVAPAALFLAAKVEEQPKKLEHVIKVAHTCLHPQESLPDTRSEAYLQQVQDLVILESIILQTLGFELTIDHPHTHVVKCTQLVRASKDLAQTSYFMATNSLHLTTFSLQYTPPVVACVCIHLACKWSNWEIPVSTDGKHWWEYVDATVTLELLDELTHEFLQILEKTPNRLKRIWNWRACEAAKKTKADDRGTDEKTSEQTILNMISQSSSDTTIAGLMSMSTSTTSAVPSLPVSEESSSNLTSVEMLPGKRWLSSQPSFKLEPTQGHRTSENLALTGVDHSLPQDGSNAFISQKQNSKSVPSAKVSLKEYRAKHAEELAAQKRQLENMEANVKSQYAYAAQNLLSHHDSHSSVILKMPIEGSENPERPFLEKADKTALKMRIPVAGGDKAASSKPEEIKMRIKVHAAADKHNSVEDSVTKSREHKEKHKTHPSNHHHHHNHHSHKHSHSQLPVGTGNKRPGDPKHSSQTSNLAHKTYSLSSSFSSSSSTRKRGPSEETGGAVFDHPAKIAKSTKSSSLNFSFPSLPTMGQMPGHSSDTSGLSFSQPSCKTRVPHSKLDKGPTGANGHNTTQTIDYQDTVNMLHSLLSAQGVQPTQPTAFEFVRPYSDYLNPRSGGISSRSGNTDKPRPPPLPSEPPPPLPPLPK
Regarding `N[C@H]1CC[C@H](Nc2cc(-c3cccc(NCc4ccccc4Cl)n3)c(Cl)cn2)CC1` [Compound 42], the IC50 (in general, the point on the concentration scale where inhibition reaches its midpoint) was 48.1 nM. In other words, the double-digit nanomolar range.

`O[C@H]1CC[C@H](Nc2cc(-c3cncc(NC[C@H]4CCCOC4)n3)c(Cl)cn2)CC1` [Compound 263] returned an IC50 of 7.94 nM. Compared with the last molecule, the IC50 is about 6.1-fold lower.

With `NC[C@H]1CC[C@H](Nc2cc(-c3cccc(NCC4CCCCC4)n3)c(Cl)cn2)CC1` [Compound 56], the IC50 is 39.3 nM.

Molecule `O=C(N[C@H]1CC[C@H](Nc2cc(-c3cccc(NCc4cccc(F)c4)n3)c(Cl)cn2)CC1)c1cccnc1` [Compound 81] had an IC50 of 54.2 nM.

`CC(C)Nc1cc(-c2cccc(NCc3cccc(F)c3)n2)c(Cl)cn1` [Compound 172] registered an IC50 of 15 nM.

As for `CN(C)CC(=O)NC[C@H]1CC[C@H](Nc2cc(-c3cccc(NCc4cccc(F)c4)n3)c(Cl)cn2)CC1` [Compound 82], 9.05 nM corresponded to half-maximal inhibition (IC50). Against the preceding molecule, the IC50 is about 1.7-fold lower.

As for `O[C@H]1CC[C@H](Nc2cc(-c3cccc(NCc4cccnc4)n3)c(Cl)cn2)CC1` [Compound 120], half-maximal inhibition (IC50) required 45.6 nM.

Molecule `COCCN[C@H]1CC[C@H](Nc2cc(-c3cccc(NCC4C[C@@H](C)O[C@@H](C)C4)n3)c(Cl)cn2)CC1` (stereo partly drawn) [Compound 285, 5′-chloro-N6-(((2R,6S)-2,6-dimethyltetrahydro-2H-pyran-4-yl)methyl)-N2′-(trans-4-(2-methoxyethylamino)cyclohexyl)-2,4′-bipyridine-2′,6-diamine] showed an IC50 of 2 nM.

Molecule `OCCCNc1cc(-c2cccc(NCc3cc(F)cc(F)c3)n2)c(Cl)cn1` [Compound 189] registered an IC50 of 7.94 nM.

For `Clc1cnc(N[C@@H]2CCCNC2)cc1-c1cccc(NCC2CCOCC2)n1` [Compound 90], the IC50 stood at 2960 nM. This IC50 is about 370-fold higher than that of the molecule before.

As to `COCCN[C@H]1CC[C@H](Nc2cc(-c3nc(NCC4CCOCC4)ccc3Cl)c(Cl)cn2)CC1` [Compound 258, 3,5′-dichloro-N2′-(trans-4-(2-methoxyethylamino)cyclohexyl)-N6-((tetrahydro-2H-pyran-4-yl)methyl)-2,4′-bipyridine-2′,6-diamine], the IC50 is 7.94 nM.

Take `CCN(CC)[C@H]1CC[C@H](Nc2cc(-c3cccc(NCC4(C#N)CCOCC4)n3)c(Cl)cn2)CC1` [Compound 366, 4-((5′-chloro-2′-((1r,4r)-4-(diethylamino)cyclohexylamino)-2,4′-bipyridin-6-ylamino)methyl)tetrahydro-2H-pyran-4-carbonitrile]: 1 nM corresponded to half-maximal inhibition (IC50).

`[2H]C([2H])(Nc1cccc(-c2cc(N[C@H]3CC[C@H](NC[C@@H]4CCCO4)CC3)ncc2Cl)n1)C1CCOCC1` [Compound 317, 5′-chloro-N6-(dideutero-(tetrahydro-2H-pyran-4-yl)methyl)-N2′-(trans-4-(((S)-tetrahydrofuran-2-yl)methyl)aminocyclohexyl)-2,4′-bipyridine-2′,6-diamine] showed an IC50 of 99 nM.

Turning to `CN(Cc1ccccc1)c1cccc(-c2cc(N[C@H]3CC[C@H](N)CC3)ncc2Cl)n1` [Compound 76], it took 11.1 nM to reach half-maximal inhibition (IC50).

The molecule `CCS(=O)(=O)NC[C@H]1CC[C@H](Nc2cc(-c3cccc(NCc4cccc(F)c4)n3)c(Cl)cn2)CC1` [Compound 79] returned an IC50 of 7.95 nM. The IC50 values of the last two molecules are within 1.5-fold of each other.

In turn, `Fc1cccc(CNc2cccc(-c3cc(N[C@H]4CC[C@H](N5CCOCC5)CC4)ncc3Cl)n2)c1` [Compound 116] came in with an IC50 of 7.95 nM.

`Fc1cccc(CNc2cccc(-c3cc(NCCN4CCNCC4)ncc3Cl)n2)c1` [Compound 168] came in with an IC50 of 37 nM.

Regarding `Clc1cnc(NC[C@H]2CCCN2)cc1-c1cccc(NCC2CCOCC2)n1` [Compound 303], the IC50 is 1300 nM.

In turn, `CC1(C)C[C@H](CNc2cccc(-c3cc(N[C@H]4CC[C@H](N)CC4)ncc3Cl)n2)CCO1` (single isomer, unassigned) [Compound 256] returned an IC50 of 7.94 nM. This IC50 lies about 160-fold lower than the previous one.

`CCS(=O)(=O)N1CCC(Nc2cc(-c3cccc(NCc4cccc(F)c4)n3)c(Cl)cn2)CC1` [Compound 6, 5′-chloro-N2′-(1-(ethylsulfonyl)piperidin-4-yl)-N6-(3-fluorobenzyl)-2,4′-bipyridine-2′,6-diamine] showed an IC50 of 136 nM.

For the molecule `COC[C@@H](C)N[C@H]1CC[C@H](Nc2cc(-c3ccc(F)c(NCC(CO)CO)n3)c(Cl)cn2)CC1` [Compound 367, 2-((5′-chloro-5-fluoro-2′-((1R,4r)-4-((R)-1-methoxypropan-2-ylamino)cyclohexylamino)-2,4′-bipyridin-6-ylamino)methyl)propane-1,3-diol], half-maximal inhibition (IC50) required 3.1 nM.

Take `CN1CCC(Nc2cc(-c3cccc(NCc4cccc(F)c4)n3)c(Cl)cn2)CC1` [Compound 103]: the IC50 was 134 nM.

The molecule `N[C@H]1CC[C@H](Nc2cc(-c3cccc(NCc4cncc(F)c4)n3)c(Cl)cn2)CC1` [Compound 38] showed an IC50 of 7.95 nM. This IC50 lies about 17-fold lower than the previous one.

`O[C@H]1CC[C@H](Nc2cc(-c3cccc(NCc4ccc(F)cc4)n3)c(Cl)cn2)CC1` [Compound 134] yielded an IC50 of 10.5 nM.

Regarding `FC(F)(F)OCCN[C@H]1CC[C@H](Nc2cc(-c3cccc(NCC4CCOCC4)n3)c(Cl)cn2)CC1` [Compound 301, 5′-chloro-N6-((tetrahydro-2H-pyran-4-yl)methyl)-N2′-(trans-4-(2-(trifluoromethoxy)ethylamino)cyclohexyl)-2,4′-bipyridine-2′,6-diamine], the IC50 came to 3 nM.

`CN[C@H]1CC[C@H](Nc2cc(-c3cccc(NCc4cccc(F)c4)n3)c(Cl)cn2)CC1` [Compound 21, 5′-chloro-N6-(3-fluorobenzyl)-N2′-(trans-4-(methylamino)cyclohexyl)-2,4′-bipyridine-2′,6-diamine] came in with an IC50 of 7.95 nM.

Consider `Fc1ccc(CNc2cccc(-c3cc(N[C@H]4CCCNC4)ncc3Cl)n2)cc1F` [Compound 100], for which half-maximal inhibition (IC50) required 309 nM. Against the preceding molecule, the IC50 is about 39-fold higher.

For `Cc1ncc(-c2cc(N[C@H]3CC[C@H](N)CC3)ncc2Cl)nc1NCC1CCOCC1` [Compound 231, trans-N1-(5-chloro-4-(5-methyl-6-((tetrahydro-2H-pyran-4-yl)methyl)aminopyrazin-2-yl)pyridin-2-yl)cyclohexane-1,4-diamine], the IC50 was 14.9 nM. This IC50 lies about 21-fold lower than the previous one.

Consider `Fc1cccc(CNc2cccc(-c3cc(NC4CCCC4)ncc3Cl)n2)c1` [Compound 140], for which the IC50 was determined as 12.6 nM.

Molecule `N[C@H]1CC[C@H](Nc2cc(-c3cc(C(=O)O)cc(NCc4cccc(F)c4)n3)c(Cl)cn2)CC1` [Compound 17, 2′-(trans-4-aminocyclohexylamino)-5′-chloro-6-(3-fluorobenzylamino)-2,4′-bipyridine-4-carboxylic acid] displayed an IC50 of 23.2 nM. Compared with the last molecule, the IC50 is about 1.8-fold higher.

As for `N[C@H]1CC[C@H](Nc2cc(-c3cccc(NCc4cccc(F)c4)n3)c(F)cn2)CC1` [Compound 197], the IC50 stood at 7.94 nM. This IC50 lies about 2.9-fold lower than the previous one.

In turn, `OC[C@H]1CC[C@H](Nc2cc(-c3cncc(NCC4CCOCC4)n3)c(Cl)cn2)CC1` [Compound 242] came in with an IC50 of 15.4 nM.

In the case of `O=S1(=O)CCC(CN[C@H]2CC[C@H](Nc3cc(-c4ccc(F)c(NCC5CCOCC5)n4)c(Cl)cn3)CC2)CC1` [Compound 331], the IC50 stood at 1 nM.

`Fc1cccc(CNc2cccc(-c3cc(N[C@H]4CC[C@H](CN5CCCC5)CC4)ncc3Cl)n2)c1` [Compound 112] gave an IC50 of 27.3 nM.

`Clc1cnc(N[C@H]2CC[C@H](N3CCCC3)CC2)cc1-c1cnc(Cl)c(NCC2CCOCC2)n1` [Compound 225, 3-chloro-6-(5-chloro-2-(trans-4-(pyrrolidin-1-yl)cyclohexylamino)pyridin-4-yl)-N-((tetrahydro-2H-pyran-4-yl)methyl)pyrazin-2-amine] came in with an IC50 of 7.95 nM. This IC50 is about 3.4-fold lower than that of the molecule before.

With `N#CC1(CNc2cccc(-c3cc(N[C@H]4CC[C@H](O)CC4)ncc3Cl)n2)CCOCC1` [Compound 359, 4-((5′-chloro-2′-((1r,4r)-4-hydroxycyclohexylamino)-2,4′-bipyridin-6-ylamino)methyl)tetrahydro-2H-pyran-4-carbonitrile], half-maximal inhibition (IC50) was put at 0.24 nM.

Molecule `COC[C@@H](C)N[C@H]1CC[C@H](Nc2cc(-c3cccc(NCC4(C#N)CCOCC4)n3)c(Cl)cn2)CC1` [Compound 358, 4-((5′-chloro-2′-((1R,4r)-4-((R)-1-methoxypropan-2-ylamino)cyclohexylamino)-2,4′-bipyridin-6-ylamino)methyl)tetrahydro-2H-pyran-4-carbonitrile] yielded an IC50 of 0.17 nM.

`Nc1ncc(-c2cc(N[C@H]3CC[C@H](O)CC3)ncc2Cl)nc1NCC1CCOCC1` [Compound 227] registered an IC50 of 25.9 nM.

`Fc1cccc(CNc2cccc(-c3cc(NC4CCOCC4)ncc3Cl)n2)c1` [Compound 142] registered an IC50 of 25.6 nM.

Molecule `O[C@@H](CN[C@H]1CC[C@H](Nc2cc(-c3nc(NCC4CCOCC4)ccc3Cl)c(Cl)cn2)CC1)C(F)(F)F` [Compound 290] yielded an IC50 of 2 nM.

In the case of `O[C@H]1CC[C@H](Nc2cc(-c3cnc(Cl)c(NCC4CCOCC4)n3)c(Cl)cn2)CC1` [Compound 222, trans-4-(5-chloro-4-(5-chloro-6-((tetrahydro-2H-pyran-4-yl)methyl)aminopyrazin-2-yl)pyridin-2-yl-amino)cyclohexanol], the IC50 stood at 7.95 nM.

In the case of `N#CC1(CNc2nc(-c3cc(N[C@H]4CC[C@H](N)CC4)ncc3Cl)ccc2F)CCOCC1` [Compound 341], the IC50 stood at 0.15 nM.

`N[C@H]1CC[C@H](Nc2cc(-c3cncc(NCC4CCOCC4)n3)c(Cl)cn2)CC1` [Compound 203, trans-N1-(5-chloro-4-(6-((tetrahydro-2H-pyran-4-yl)methyl)aminopyrazin-2-yl)pyridin-2-yl)cyclohexane-1,4-diamine]: the IC50 was determined as 7.94 nM.

Consider `Fc1cccc(CNc2cccc(-c3cc(N[C@@H]4CCCNC4)ncc3Cl)n2)c1` [Compound 91], for which 336 nM corresponded to half-maximal inhibition (IC50).

`CCCN(CCC)[C@H]1CC[C@H](Nc2cc(-c3ccc(F)c(NCC4(C#N)CCOCC4)n3)c(Cl)cn2)CC1` [Compound 343]: the IC50 is 0.31 nM.

`Fc1ccc(-c2cc(N[C@H]3CC[C@H](NC4COC4)CC3)ncc2Cl)nc1NCC1CCOCC1` [Compound 281] gave an IC50 of 61.2 nM.

`CC(C)CN1CCC(Nc2cc(-c3cccc(NCc4cccc(F)c4)n3)c(Cl)cn2)CC1` [Compound 102] returned an IC50 of 121 nM.

The values are drawn from patent US8778951B2, “Heteroaryl compounds and their uses” (Novartis AG, priority 2009, dated 2014).
